Biological target: T1, soluble epoxide hydrolase (sEH) (Homo sapiens, UniProt P34913)
T1 sequence (P34913 1-555): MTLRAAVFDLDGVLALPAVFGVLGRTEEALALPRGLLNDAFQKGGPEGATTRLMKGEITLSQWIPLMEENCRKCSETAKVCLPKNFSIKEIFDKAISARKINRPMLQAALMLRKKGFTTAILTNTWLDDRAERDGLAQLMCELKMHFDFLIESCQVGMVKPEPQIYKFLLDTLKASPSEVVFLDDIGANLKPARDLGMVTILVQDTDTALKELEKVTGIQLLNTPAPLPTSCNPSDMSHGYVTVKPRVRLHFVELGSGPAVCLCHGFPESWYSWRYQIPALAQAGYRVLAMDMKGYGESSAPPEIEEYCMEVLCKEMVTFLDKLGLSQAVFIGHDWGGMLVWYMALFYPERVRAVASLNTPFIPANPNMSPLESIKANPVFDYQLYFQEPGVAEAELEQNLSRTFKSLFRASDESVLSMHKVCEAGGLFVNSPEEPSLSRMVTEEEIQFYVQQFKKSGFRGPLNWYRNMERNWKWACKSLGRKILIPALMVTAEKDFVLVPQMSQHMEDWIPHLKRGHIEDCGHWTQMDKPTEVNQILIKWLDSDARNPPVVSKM
Test: recombinant enzyme inhibition
Type: biochemical

Ki: 96 nM
SMILES: O=C(Nc1ccc(Cl)cc1)Nc1ccc(Cl)c(Cl)c1 [TCC, 3,4,4′-trichlorocarbanilide]

Source: article PMC3156297 (2011)
